Data from PubChem BioAssay AID179 (DTP/NCI, 2004).
Where “and” joins values, the source holds several entries; their conditions need not be identical. Identical values can stand only once. Calls of active or inactive are those of the source.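 How the source made its calls: active means compounds giving half or more protection of infected cells from virus-caused growth loss, again on retest; inactive means the rest.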 Where a SMILES comes first, the peptide text is derived from it.

System: CEM cells HIV-1 protection, formazan growth assay
Test: NCI AIDS Antiviral Assay
Settings: for IC50: measured here: growth of uninfected CEM cells
Protocol: The ability of compounds to protect human CEM cells from HIV-1 infection is measured as a screen for new compounds capable of inhibiting the HIV virus. Five concentrations of drug were tested on uninfected and infected cells and cell growth was measured using a soluble formazan assay. […] Compounds that provided at least 50% protection were retested. Compounds that provided at least 50% protection on retest were listed as moderately active. Compounds that reproducibly provided 100% protection were listed as confirmed active. […] Note that the inability to provide protection could be due to toxicity.

SMILES | EC50 [µM] | IC50 | outcome
COc1ccc2c(c1)C(C(=O)O)CC(=O)N2C (stereo not given) | > 200 | > 200 µM | 
CC(C)(C)OC(=O)NCC(=O)NCC(=O)NCC(=O)NCC(=O)O (HELM PEPTIDE1{[CC(C)(C)OC(=O)[*:2]].G.G.G.G}$$$$V2.0) | > 724 | > 724 µM | 
C[Se]CCC1OC[C@H]2O[C@@H](n3cc(C)c(=O)[nH]c3=O)C[C@H]2N1O (stereo not given in full) |  |  | active
COc1ccc(N2N=NN(C(C)C)/C2=C(/Cl)c2nnnn2-c2ccc(OC)cc2)cc1 | > 200 | 9.33 µM | 
COc1cc2cccc(OC)c(=O)c2c(O)c1OC |  |  | inactive
Cc1ccc(/C(C#N)=C/c2ccc(N(C)C)cc2)cc1 | > 200 | 1.29 µM | 
N/C(=N\NS(=O)(=O)c1ccccc1)C(F)(F)F | > 200 | 107 µM | 
c1ccc(C2ON2CCCN2OC2c2ccccc2)cc1 (stereo not given) | > 200 | > 200 µM | 
CCN(/N=C1\CC2C=CCN(C2)C(=O)Cc2c1[nH]c1ccccc21)S(=O)(=O)c1ccc(C)cc1 (stereo not given) | > 63.1 | 60.3 µM | 
C[N+](C)(C)CCCS(=O)(=O)[O-] | > 200 | > 200 µM | 
COc1ccc(/C=N/NC(=O)c2ccccc2Nc2ccccc2C(=O)N/N=C/c2ccc(OC)cc2)cc1 | > 102 | 85.1 µM | 
N#C/C(=C\N1CCNC1=S)c1nc2ccccc2s1 | > 200 | > 200 µM | 
COc1ccc(Cc2c(-c3ccc(C)cc3)n[nH]c(=O)c2C2C(=O)N(c3ccccc3)N=C2c2ccccc2)cc1 (stereo not given) | > 200 | 38 µM | 
C[CH2][Sn]([CH2]C)([O]C(=O)c1cccc(OC)c1)[O][Sn]([CH2]C)([CH2]C)[O]C(=O)c1cccc(OC)c1 | > 38.9 | 16.6 µM | 
Cc1nc2ccccc2c(=O)n1N1C2CCCC21 (stereo not given) | > 200 | > 200 µM | 
CC(/C=N/Nc1ccc([N+](=O)[O-])cn1)=N/Nc1ccc([N+](=O)[O-])cn1 | > 200 | > 200 µM | 
NC(=O)/N=C1/CCC2C3CCCC2C13 |  |  | inactive
O=c1ccc2nc3ccc(O)cc3oc-2c1 | > 200 | 14.1 µM | 
O=C(NCCCCN(CCCNC(=O)C(F)(F)F)Cc1ccccc1)C(F)(F)F | > 200 | 97.7 µM | 
COc1ccc(N=NC(=O)NC(CC(C)C)C(=O)NC(C)C(=O)O)cc1 (stereo not given) | > 200 | 2.82 µM | 
COC(=O)c1c(C)cc2c(c1O)C1(O)C(=O)c3cc4c(c(O)c3C(=O)C1(OC)C(O)C2)C(=O)C=C(NC1OC(C)C(OC)C(O)C1OC)C4=O (stereo not given) |  |  | inactive
O=C(NCCc1ccccc1)[C@H]1CCCC[C@@H]1CCO | > 200 | > 200 µM | 
CCCOC(C)OCCC#CCC(C)OC(=O)CC(Cl)(Cl)Cl (stereo not given) | > 200 | > 200 µM | 
CCOC(=O)/N=c1/nc(N(C)C)ss1 |  |  | inactive

SMILES | EC50 [µM] | IC50 | outcome
CSC(SC)=C1Sc2cccc(Cl)c2S1 | > 9.33 | > 9.33 µM | 
CCOC(=O)c1c(-c2ccc(Br)cc2)ccn1C | > 200 | 74.1 µM | 
Cc1ccc2c(c1)[nH]c1cc(C(F)(F)F)ccc1[p+]2=O (stereo not given) | > 200 | 26.3 µM | 
Cc1nc2cccc(F)c2c(=O)n1-c1nnc(C2CC2)s1 | > 200 | > 200 µM | 
O=Nc1c(-c2ccccc2)nc2cnccn12 | > 200 | 5.89 µM | 
O=C1Nc2ccccc2Sc2ccccc21 | 93.3 | 115 µM | 
Cn1cnc(CCc2ccccc2)n1 | > 1120 | > 1120 µM | 
COc1ccc(-c2ncnc(-c3ccc(OC)c(OC)c3)n2)cc1OC | > 100 | > 100 µM | 
CCN(CC)C(=O)C/C(C)=N/NC(=O)c1ccncc1 | > 93.3 | > 93.3 µM | 
NC1(CCCCCCCCCCC(=O)O)CNCCNCCNCCNC1 | > 437 | 3.47 µM | 
Cc1cc2c(cc1C)NC(=O)C(NC(=O)/C=C/c1ccccc1)C=N2 (stereo not given) | > 56.2 | 38.9 µM | 
COc1nc(C(O)C2OC(C)(C)OCC2O)[nH]c1C#N (stereo not given) |  |  | inactive
O=C1c2ccccc2C2(Br)C(=O)c3ccccc3C12 (stereo not given) |  |  | inactive
N#CC(Cc1ccccc1)C(=O)NN (stereo not given) | > 200 | > 200 µM | 
C/C(CCN(C)C)=N/O |  |  | inactive
COP1(=O)OC(C)=C(C)c2cccn21 (stereo not given) | > 60.3 | > 60.3 µM | 
CC(=O)Nc1ccccc1/C=C/c1ccccn1 | > 1050 | 407 µM | 
CN(C)CC1=C(O)c2ccccc2C(=O)C1=O | > 1070 | > 1070 µM | 
C=C[C@@H]1C(CO)=CCC2[C@H]1CCC1C(C)(C)C(=O)CC[C@]21C (stereo not given in full) | > 200 | > 200 µM | 
Cc1nc2c(=O)n(C)c(=O)n(C)c2nc1CCC(=O)O | > 200 | > 200 µM | 
C1CCSCCCCSCCCCSCCCCSC1 | > 102 | > 102 µM | 
COc1cc2c(cc1OC)C(=O)N1CSCC1C(=O)S2 (stereo not given) | > 50.1 | > 50.1 µM | 
CCC1C(=O)OCc2c1cc1n(c2=O)CCC12OCCO2 (stereo not given) | > 851 | > 851 µM | 
CC1(C)N=C(C(N)=O)c2ncn(N)c2N1 | > 200 | > 200 µM | 

SMILES | EC50 [µM] | IC50 | outcome
CCN(CC)c1nc(NC2CCCCC2)c2nc(N(CC)CC)nc(NC3CCCCC3)c2n1 | > 11.2 | 0.537 µM | 
Clc1cnc(Oc2ccccc2)c2ccccc12 | > 200 | 64.6 µM | 
C[CH2][Ge]([CH2]C)([CH2]C)[O]C(=O)CCC(=O)[O][Ge]([CH2]C)([CH2]C)[CH2]C | > 214 | > 214 µM | 
CC1C(NNC(N)=O)Oc2cc3c(cc2C1c1ccccc1O)OCO3 (stereo not given) | > 200 | 32.4 µM | 
C/C=C/C(C#N)O[Si](C)(C)C (stereo not given) |  |  | inactive
O=C(Nc1ccc(S(=O)(=O)/N=c2\ncccn2C(=O)C(C(F)(F)F)C(F)(F)F)cc1)C(C(F)(F)F)C(F)(F)F | > 200 | > 200 µM | 
N#C/C(=C\c1ccc2ccccc2c1)C(=O)c1ccccc1 | > 7.08 | > 7.08 µM | 
COc1ccc(Nc2c3sc4cc(OC)ccc4nc-3c3ccccc3c2=O)cc1 | > 100 | > 100 µM | 
O=Cc1cc(O)ccc1Br | > 200 | 2.95 µM | 
Cc1ccc(C)c(NC(=O)C(=O)CC(=O)C2CCOC2=O)c1 (stereo not given) |  |  | inactive
COC(=O)C(C#CCCCCC#CC(NC(=O)OCc1ccccc1)(C(=O)OC)C(F)(F)F)(NC(=O)OCc1ccccc1)C(F)(F)F (stereo not given) | > 200 | 138 µM | 
COC(=O)c1cncc2c1CC1C3(C(=O)OC)C=NC(C4C(CO)=CCC43)C21C (stereo not given) |  |  | inactive
CN1CC[C@@H](c2c(O)cc(O)c3c(=O)cc(-c4ccccc4Cl)oc23)[C@@H](O)C1 | 0.01 | 0.0468 µM | 
CN1C(=O)C(C)(C)C2(SC(C)(C)C2(C)C)N(C)C1=S (stereo not given) | > 24 | > 24 µM | 
CCCCC(c1nc2c(c3c1CCCC3)CCCC2)C(O)(C(F)(F)F)C(F)(F)F (stereo not given) | > 200 | 38.9 µM | 
COc1ccc(C(=O)/C=C/c2ccc(OCC(=N)N)cc2)cc1OC |  |  | inactive
COc1ccc(CNc2nc3c(NC(C)=O)cc(C(F)(F)F)cc3nc2-c2ccccc2)cc1OC | > 10.5 | > 10.5 µM | 
O=c1oc2ccccc2c(O)c1C(C/C(CCN1CCCC1)=N/O)c1ccccc1 (stereo not given) | > 42.7 | > 42.7 µM | 
O=CN(CCNc1ccccc1)c1ccccc1 | > 200 | > 200 µM | 
O=c1cc/c(=N/O)c(=O)/c1=N\O | 17.4 | 151 µM | 
CC1(C)CC(=O)CC(=Nc2ccc([N+](=O)[O-])cc2)C1 | > 52.5 | > 52.5 µM | 
COC(=O)c1ccccc1OCc1cc(=O)oc2ccc(C)cc12 |  |  | inactive
Cc1nc2c(nc1C)C(=O)C(Br)=C(N)C2=O |  |  | inactive
O=S1(=O)C2C=CCC1C(O)CC2 (stereo not given) | > 933 | > 933 µM | 

SMILES | EC50 [µM] | IC50 | outcome
N#CC(C#N)=C(N)/C(C#N)=C/c1cc(O)c(O)c(Br)c1 | > 77.6 | > 77.6 µM | 
C=C(C)C(C)(C)n1[nH]c(=O)n(-c2ccccc2)c1=O | > 200 | > 200 µM | 
NCCN.NCCN.O=C([O-])C(=O)[O-].[Cl-].[Co+3] |  |  | inactive
CS(=O)(=O)Nc1ccc2ccccc2c1-c1c(NS(C)(=O)=O)ccc2ccccc12 | > 50.1 | 47.9 µM | 
CC1(O)CC(C(F)(F)F)(C(F)(F)F)OC1=O (stereo not given) | > 200 | > 200 µM | 
O=C(O)c1oc2cccc3c2c1CCC3 |  |  | inactive
CCCCCCCCCCCCNC(=O)c1ccccc1[Se][Se]c1ccccc1C(=O)NCCCCCCCCCCCC | > 3.55 | > 3.55 µM | 
CCCCCCCc1ccc(OC2OC(CO)C(O)C(O)C2O)cc1 (stereo not given) | > 126 | 29.5 µM and 10.2 µM | 
CNC(=O)c1n[nH]nc1Sc1c([N+](=O)[O-])ncn1C |  |  | inactive
O=C(O)c1ccccc1Sc1ccccc1[N+](=O)[O-] |  |  | inactive
Nc1ncnc2c1ncn2C1OC2(CCSC2)C(O)C1O (stereo not given) | > 200 | 155 µM | 
Cn1c2ccccc2c(=O)c2c(O)cc3c(c21)C=CC1(CCCCC1)O3 | > 200 | > 200 µM | 
O=C1OC(=O)c2c(O)cc(O)c(=O)cc21 | > 331 | 209 µM | 
Cc1cc(/C=C\c2ccnc3ccccc23)ccc1N(C)C |  |  | inactive
CC1(C2CCC3(C)C(C2)C3Sc2ccccc2)OCCO1 (stereo not given) |  |  | inactive
Cc1cc(=O)[nH]c(NN2C(Cl)C(=O)C2c2ccc(Cl)cc2)n1 (stereo not given) | > 55 | 4.68 µM | 
Nc1cnn2nnnc2c1Cl | > 200 | > 200 µM | 
C/C(CC(C)C)=N/Nc1nc(C)cc(=O)[nH]1 | > 200 | > 200 µM | 
CCN=C(CC(=O)C12CC3CC(CC(C3)C1)C2)N(CC)CC |  |  | inactive
CC1NC(=O)c2cc(=O)n(C)c(O)c21 (stereo not given) | > 209 | > 209 µM | 
O=C(/C=C/c1ccc(O)c(O)c1)OC1CC(O)(C(=O)O)CC(O)C1O (stereo not given) (tested in a mixture with another compound) | > 200 | 81.3 µM | 
